Measured values: US9782522B2, “Compositions and methods for treating and preventing neointimal stenosis” (Yale University, priority 2011, dated 2017)

Legend:
3T3 human fibroblasts = test: Bioactivity of encapsulated SB-431542 (phosphorylated SMAD-2 after TGF-β1); format: cell-based
Procedure: SB-431542 was released into 1 ml PBS from 10 mg avidin-coated PLGA microparticles and one untrimmed SB-431542-eluting PGA-P(CL/LA) scaffold in 2 ml microcentrifuge tubes at 37° C. At 48 hours, samples were centrifuged at 13200 RPM for 10 minutes, supernatants were collected and analyzed by spectrophotometry at 320 nm. SB-431542 concentrations were adjusted to 10 μM by dilution with PBS. 3T3 human fibroblasts were plated at 500,000/well and stimulated at confluence with 700 ul 10 μM SB-431542 in PBS eluted from particles or scaffolds, a stock solution of 10 or 1 μM SB-431542 containing <1% DMSO, or PBS. After 30 minutes at 37° C., cells were washed and stimulated with 200 ul 2 ng/ml recombinant human TGF-β1 (BD Biosciences) for 1 hour at 37 C. Cells were lysed and protein samples were separated by gel electrophoresis with a 12% polyacrylamide gel and probed with primary antibody to phosphorylated SMAD-2 (ser426/ser428, Cell Signaling Technology) and secondary goat anti-rabbit IgG (Cell Signaling Technology). The gel was stripped and reprobed with anti-SMAD2/3 as a loading control.

[1] = SB-431542 release from microparticles and scaffolds; format: physicochemical
Procedure: Total encapsulation was approximated as the amount of SB-431542 released over a 14-day period. Percent encapsulation efficiency was calculated as total encapsulation divided by maximum theoretical encapsulation. 5 mg of avidin-coated PLGA microparticles containing SB-431542, PGA-P(CL/LA) trimmed scaffolds and treated with pLLB and SB-431542-eluting microparticles as above, and SB-431542-eluting PGA-P(CL/LA) trimmed scaffolds were incubated with PBS in triplicate on a rotary shaker at 37° C. Samples were removed at specific time points and centrifuged at 13200 RPM for 10 minutes. 300 μl of supernatant was drawn and replaced with 300 μl PBS. Concentration of SB-431542 in supernatant diluted with 600 μl PBS was determined by spectrophotometry at 320 nm.

ALK-1, -2, -3, and -6 = settings: cited from earlier work
[2] = inhibitor added to the solvent used to make the grafts

NC(=O)c1ccc(-c2nc(-c3ccc4c(c3)OCO4)c(-c3ccccn3)[nH]2)cc1 [SB431542, 4-[4-(1,3-Benzodioxol-5-yl)-5-(2-pyridinyl)-1H-imidazol-2-yl]-benzamide]
Biologic activity of the released drug (3T3 human fibroblasts; [2]): continued biologic activity | Biologic activity of the released drug (3T3 human fibroblasts; microparticle system): maintains its biologic activity | Release of the drug ([1]; PLGA microparticle system tethered to TEVG scaffold, full 2-week time course): steady release | Release profile [1, 2]: favorable release profile | Effect on ALK-1, -2, -3, and -6 and hence BMP signaling (ALK-1, -2, -3, and -6): without effect
